According to ChEMBL document CHEMBL5634141 (Eur J Med Chem, 2023):
Activity calls are given as the source filed them. No cut-off for these calls is given here.

Legend:
[1] = test system: MIA PaCa-2; assay: Antiproliferative activity against human MIA PaCa-2 cells expressing KRAS G12C mutant assessed as relative cell viability at 30 nM incubated for 72 hrs in presence of infigratinib by CCK-8 assay; format: functional; settings: read-out: Activity
[2] = test system: von Hippel-Lindau disease tumor suppressor/GTPase KRas (Homo sapiens), P01116+P40337 [G12C]; assay: PROTAC activity at VHL/KRAS G12C mutant in human NCI-H358 cells assessed as inhibition of AKT phosphorylation at 100 nM incubated for 1 to 8 days by Western blotting analysis; format: cell-based; settings: time 1-8 day
[3] = test system: SW837; assay: Antiproliferative activity against human SW837 cells expressing KRAS G12C mutant assessed as relative cell viability at 30 nM incubated for 72 hrs in presence of crizotinib by CCK-8 assay; format: functional; settings: read-out: Activity
[4] = test system: NCI-H358; assay: Synergistic antiproliferative activity against human NCI-H358 cells expressing KRAS G12C mutant assessed as combination index incubated for 72 hrs in presence of linsitinib by CCK-8 assay; format: functional
[5] = test system: MIA PaCa-2; assay: Antitumor activity against human MIA PaCa-2 cells xenografted in BALB/c nude mouse assessed as reduction in percentage of KRAS-positive cells at 10 to 30 mg/kg, ip administered for 16 days by immunohistochemical staining analysis; format: functional, organism-based; settings: dose 10-30 mg/kg, time 16.0 day
[6] = test system: von Hippel-Lindau disease tumor suppressor/GTPase KRas (Homo sapiens), P01116+P40337 [G12C]; assay: PROTAC activity at VHL/KRAS G12C mutant in human MIA PaCa-2 cells assessed as induction of protein degradation at 100 nM incubated for 48 hrs followed by compound washout and measured after 48 hrs by Western blotting analysis; format: cell-based
[7] = test system: von Hippel-Lindau disease tumor suppressor/GTPase KRas (Homo sapiens), P01116+P40337 [G12C]; assay: PROTAC activity at VHL/KRAS G12C mutant in human MIA PaCa-2 cells assessed as induction of protein degradation at 100 nM incubated for 48 hrs by Western blotting analysis relative to control; format: cell-based
[8] = test system: NCI-H358; assay: Antiproliferative activity against human NCI-H358 cells expressing KRAS G12C mutant assessed as relative cell viability at 30 nM incubated for 72 hrs by CCK-8 assay; format: functional; settings: read-out: Activity
[9] = Clearance in ICR mouse at 2 mg/kg, iv measured after 24 hrs by LC-MS/MS analysis; format: ADME, organism-based; settings: in vivo
[10] = test system: NCI-H23; assay: Antiproliferative activity against human NCI-H23 cells expressing KRAS G12C mutant assessed as relative cell viability at 30 nM incubated for 72 hrs in presence of naporafenib by CCK-8 assay; format: functional; settings: read-out: Activity
[11] = test system: NCI-H358; assay: Induction of apoptosis in human NCI-H358 cells assessed as early apoptotic cells at 100 nM incubated for 48 hrs by Annexin V-FITC staining based flow cytometry analysis (reference value: 1.60 %); format: functional
[12] = test system: NCI-H358; assay: Synergistic antiproliferative activity against human NCI-H358 cells expressing KRAS G12C mutant assessed as combination index at 30 nM incubated for 72 hrs in presence of crizotinib by CCK-8 assay; format: functional
[13] = test system: MIA PaCa-2; assay: Antiproliferative activity against human MIA PaCa-2 cells expressing KRAS G12C mutant assessed as relative cell viability at 30 nM incubated for 72 hrs in presence of crizotinib by CCK-8 assay; format: functional; settings: read-out: Activity
[14] = test system: NCI-H358; assay: Inhibition of colony formation in human NCI-H358 cells expressing KRAS G12C mutant assessed as reduction in cell number at 30 nM incubated for 14 days in presence of linsitinib by crystal violet staining based analysis; format: functional; settings: time 14.0 day
[15] = Cmax in ICR mouse at 2 mg/kg, iv measured after 24 hrs by LC-MS/MS analysis; format: ADME, organism-based; settings: in vivo
[16] = AUC (0 to t) in ICR mouse at 30 mg/kg, ip measured after 24 hrs by LC-MS/MS analysis; format: ADME, organism-based; settings: in vivo
[17] = test system: MIA PaCa-2; assay: Antitumor activity against human MIA PaCa-2 cells xenografted in BALB/c nude mouse assessed as tumor growth inhibition at 30 mg/kg, ip measured after 8 days relative to control; format: functional; settings: MIA PaCa-2, 192 h, time 8 day, read-out: TGI
[18] = test system: von Hippel-Lindau disease tumor suppressor/GTPase KRas (Homo sapiens), P01116+P40337 [G12C]; assay: PROTAC activity at VHL/KRAS G12C mutant in human MIA PaCa-2 cells assessed as induction of protein degradation in presence of MLN4924 by Western blot analysis; format: cell-based
[19] = test system: NCI-H358; assay: Synergistic antiproliferative activity against human NCI-H358 cells expressing KRAS G12C mutant assessed as combination index at 30 nM incubated for 72 hrs in presence of MK-2206 by CCK-8 assay; format: functional
[20] = test system: MIA PaCa-2; assay: Antiproliferative activity against human MIA PaCa-2 cells expressing KRAS G12C mutant assessed as inhibition of cell growth incubated for 72 hrs by CCK-8 assay; format: functional, cell-based; settings: MIA PaCa-2, 72 h
[21] = Toxicity in BALB/c nude mouse xenografted with human MIA PaCa-2 cells at 10 to 30 mg/kg, ip measured after 16 days; format: organism-based; settings: in vivo, 384 h, dose 10-30 mg/kg, time 16 day
[22] = test system: MIA PaCa-2; assay: Antiproliferative activity against human MIA PaCa-2 cells expressing KRAS G12C mutant assessed as reduction of cell growth by measuring fold decrease in IC50 incubated for 72 hrs in presence of AZD4573 by CCK-8 assay; format: functional
[23] = test system: NCI-H358; assay: Antiproliferative activity against human NCI-H358 cells expressing KRAS G12C mutant assessed as relative cell viability at 30 nM incubated for 72 hrs in presence of MK-2206 by CCK-8 assay; format: functional; settings: read-out: Activity
[24] = test system: Mus musculus; assay: In vivo PROTAC activity at VHL/KRAS G12C mutant in BALB/c nude mouse xenografted with human MIA PaCa-2 cells assessed as decrease in ERK phosphorylation at 10 to 30 mg/kg, ip administered for 16 days by Western blot analysis; format: functional, organism-based; settings: dose 10-30 mg/kg, time 16.0 day
[25] = test system: HepG2; assay: Antiproliferative activity against human HepG2 cells expressing KRAS assessed as inhibition of cell growth incubated for 72 hrs by CCK-8 assay; format: functional, cell-based; settings: HepG2, 72 h
[26] = Toxicity in ICR mouse assessed as side effects at 2 mg/kg, iv measured after 24 hrs; format: organism-based; settings: in vivo
[27] = test system: von Hippel-Lindau disease tumor suppressor/GTPase KRas (Homo sapiens), P01116+P40337 [G12C]; assay: PROTAC activity at VHL/KRAS G12C mutant in human NCI-H358 cells assessed as induction of protein degradation at 300 nM incubated for 24 hrs by Western blotting analysis relative to control; format: cell-based
[28] = target: von Hippel-Lindau disease tumor suppressor/GTPase KRas (Homo sapiens, UniProt P01116+P40337, G12C); assay: (§1) PROTAC activity at VHL/KRAS G12C mutant in human NCI-H358 cells assessed as induction of protein degradation incubated for 72 hrs by Western blot analysis; format: cell-based
Chain of von Hippel-Lindau disease tumor suppressor/GTPase KRas (P01116 whole entry G12C, stated change not applied): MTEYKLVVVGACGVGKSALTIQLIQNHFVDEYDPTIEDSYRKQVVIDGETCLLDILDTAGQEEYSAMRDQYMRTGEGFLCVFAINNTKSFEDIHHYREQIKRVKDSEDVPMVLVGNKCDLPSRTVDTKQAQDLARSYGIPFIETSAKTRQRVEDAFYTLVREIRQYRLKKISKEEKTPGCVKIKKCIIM
Chain of von Hippel-Lindau disease tumor suppressor/GTPase KRas (P40337 whole entry partner, stated change not applied): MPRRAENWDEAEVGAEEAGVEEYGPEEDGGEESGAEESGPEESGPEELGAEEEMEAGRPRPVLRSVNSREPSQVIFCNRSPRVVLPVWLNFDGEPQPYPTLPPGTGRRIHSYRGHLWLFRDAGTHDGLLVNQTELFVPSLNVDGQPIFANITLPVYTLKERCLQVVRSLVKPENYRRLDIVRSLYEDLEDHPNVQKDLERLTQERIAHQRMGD

[29] = test system: von Hippel-Lindau disease tumor suppressor/GTPase KRas (Homo sapiens), P01116+P40337 [G12C]; assay: as §1; format: cell-based
[30] = test system: NCI-H358; assay: Synergistic antiproliferative activity against human NCI-H358 cells expressing KRAS G12C mutant assessed as combination index at 30 nM incubated for 72 hrs in presence of infigratinib by CCK-8 assay; format: functional
[31] = test system: NCI-H358; assay: Antiproliferative activity against human NCI-H358 cells expressing KRAS G12C mutant assessed as reduction of cell growth by measuring fold decrease in IC50 incubated for 72 hrs in presence of Linsitinib by CCK-8 assay; format: functional
[32] = test system: von Hippel-Lindau disease tumor suppressor/GTPase KRas (Homo sapiens), P01116+P40337 [G12C]; assay: PROTAC activity at VHL/KRAS G12C mutant in human MIA PaCa-2 cells assessed as induction of protein degradation at 300 nM incubated for 24 hrs by Western blotting analysis relative to control; format: cell-based

Q: For `C=CC(=O)N1CCN(c2nc(=O)n(-c3c(C)ccnc3C(C)C)c3nc(-c4c(F)cccc4OCC4CCN(CCCC(=O)N[C@H](C(=O)N5C[C@H](O)C[C@H]5C(=O)NCc5ccc(-c6scnc6C)cc5)C(C)(C)C)CC4)c(F)cc23)[C@@H](C)C1`, which viability at 0.03 µM [1] is on record?
A: Its viability at 0.03 µM is 0.35%.

Q: What about the Activity [2] of the same compound?
A: Its Activity is “Active”.

Q: What about the viability at 0.03 µM [3] of the same compound?
A: Its viability at 0.03 µM is 0.36%.

Q: And the CI [4]?
A: The CI was under 1.

Q: And the Activity [5]?
A: The Activity was “Active”.

Q: What about the Activity [6] of the same compound?
A: The Activity was “inactive”.

Q: And the Activity [7]?
A: Its Activity is 100%.

Q: What about the viability at 0.03 µM [8] of the same compound?
A: The viability at 0.03 µM was 0.83%.

Q: And the clearance [9]?
A: Its clearance is 84.2 mL/min/kg.

Q: And the viability at 0.03 µM [10]?
A: Its viability at 0.03 µM is 0.34%.

Q: What about the Activity [11] of the same compound?
A: The Activity was 2.94%.

Q: And the CI [12]?
A: Its CI is under 1.

Q: What about the viability at 0.03 µM [13] of the same compound?
A: Its viability at 0.03 µM is 0.28%.

Q: And the inhibition [14]?
A: Its inhibition is “Active”.

Q: And the Cmax [15]?
A: Its Cmax is 1170 ng/mL.

Q: And the AUC(0-t) at 24 h [16]?
A: Its AUC(0-t) at 24 h is 21000 ng·h/mL.

Q: And the inhibition in vivo at 30 mg/kg [17]?
A: Its inhibition in vivo at 30 mg/kg is over 100%.

Q: What about the Activity [18] of the same compound?
A: Its Activity is “inactive”.

Q: And the CI [19]?
A: The CI was under 1.

Q: And the IC50 [20]?
A: The IC50 was 45 nM.

Q: And the Activity [21]?
A: The Activity was “Non-Toxic”.

Q: What about the “fold change (FC)” value [22] of the same compound?
A: The value was about 9.

Q: And the viability at 0.03 µM [23]?
A: Its viability at 0.03 µM is 0.36%.

Q: And the Activity [24]?
A: Its Activity is “Active”.

Q: What about the IC50 [25] of the same compound?
A: The IC50 was over 10000 nM.

Q: What about the Activity [26] of the same compound?
A: Its Activity is “Non-Toxic”.

Q: What about the Activity [27] of the same compound?
A: The Activity was 100%.

Q: What about the DC50 [28] of the same compound?
A: Its DC50 is 67 nM.

Q: What about the Activity [29] of the same compound?
A: The Activity was “Dose-Dependent Effect”.

Q: And the CI [30]?
A: Its CI is under 1.

Q: And the “fold change (FC)” value [31]?
A: Its value is about 4.

Q: What about the Activity [32] of the same compound?
A: Its Activity is 100%.
